Values after ≈ are worked out from the molar mass of the structure shown.
Experiments:
P. vulgaris GN 7919 = experiment: Antimicrobial activities (MIC, agar dilution); assay type: cell-based; conditions: Proteus vulgaris, GN7919, Sensitivity Disk agar-N+5% Horse blood, 10^6 CFU/ml, read-out: minimum inhibiting concentrations (MIC)
Method: (§1) The minimum inhibiting concentrations (MIC, μg/ml) of representative compounds, among the novel carbapenem derivatives of the present invention, to various pathogenic bacteria were measured in accordance with the method described in CHEMOTHERAPY, vol. 16, No. 1, 99, 1968. The culture medium for the measurement is Sensitivity Disk agar-N+5% Horse blood, and the amount of inoculants used is 10^6 CFU/ml.

B. catarrhalis W-0500 = experiment: Antimicrobial activities (MIC, agar dilution); assay type: cell-based; conditions: Moraxella catarrhalis, W0500, Sensitivity Disk agar-N+5% Horse blood, 10^6 CFU/ml, read-out: minimum inhibiting concentrations (MIC)
Method: as §1

S. aureus M 126 = experiment: Antimicrobial activities (MIC, agar dilution); assay type: cell-based; conditions: Staphylococcus aureus, M126; S. aureus M 126, Methicillin-hyperresistant strain; Sensitivity Disk agar-N+5% Horse blood; 10^6 CFU/ml; read-out: minimum inhibiting concentrations (MIC)
Method: as §1

C. freundii GN 346 = experiment: Antimicrobial activities (MIC, agar dilution); assay type: cell-based; conditions: Citrobacter freundii, GN346, Sensitivity Disk agar-N+5% Horse blood, 10^6 CFU/ml, read-out: minimum inhibiting concentrations (MIC)
Method: as §1

[1] = system: S. epidermidis ATCC 14990; experiment: Antimicrobial activities (MIC, agar dilution); assay type: cell-based; conditions: Staphylococcus epidermidis, ATCC14990, Sensitivity Disk agar-N+5% Horse blood, 10^6 CFU/ml, read-out: minimum inhibiting concentrations (MIC)
Method: as §1

E. faecalis W-73 = experiment: Antimicrobial activities (MIC, agar dilution); assay type: cell-based; conditions: Enterococcus faecalis, W73, Sensitivity Disk agar-N+5% Horse blood, 10^6 CFU/ml, read-out: minimum inhibiting concentrations (MIC)
Method: as §1

S. aureus 209P JC-1 = experiment: Antimicrobial activities (MIC, agar dilution); assay type: cell-based; conditions: Staphylococcus aureus, Sensitivity Disk agar-N+5% Horse blood, 10^6 CFU/ml, read-out: minimum inhibiting concentrations (MIC)
Method: as §1

H. influenzae PRC 44 = experiment: Antimicrobial activities (MIC, agar dilution); assay type: cell-based; conditions: Haemophilus influenzae, PRC44, Sensitivity Disk agar-N+5% Horse blood, 10^6 CFU/ml, read-out: minimum inhibiting concentrations (MIC)
Method: as §1

E. coli NIHJ JC-2 = experiment: Antimicrobial activities (MIC, agar dilution); assay type: cell-based; conditions: Escherichia coli, NIHJJC2, Sensitivity Disk agar-N+5% Horse blood, 10^6 CFU/ml, read-out: minimum inhibiting concentrations (MIC)
Method: as §1

K. pneumoniae PC 1602 = experiment: Antimicrobial activities (MIC, agar dilution); assay type: cell-based; conditions: Klebsiella pneumoniae, PC1602, Sensitivity Disk agar-N+5% Horse blood, 10^6 CFU/ml, read-out: minimum inhibiting concentrations (MIC)
Method: as §1

E. hirae ATCC 8043 = experiment: Antimicrobial activities (MIC, agar dilution); assay type: cell-based; conditions: Enterococcus hirae, ATCC8043, Sensitivity Disk agar-N+5% Horse blood, 10^6 CFU/ml, read-out: minimum inhibiting concentrations (MIC)
Method: as §1

H. influenzae PRC 2 = experiment: Antimicrobial activities (MIC, agar dilution); assay type: cell-based; conditions: Haemophilus influenzae, PRC2, Sensitivity Disk agar-N+5% Horse blood, 10^6 CFU/ml, read-out: minimum inhibiting concentrations (MIC)
Method: as §1

S. pneumoniae PRC 9 = experiment: Antimicrobial activities (MIC, agar dilution); assay type: cell-based; conditions: Streptococcus pneumoniae, PRC9; S. pneumoniae PRC 9, Penicillin-hyperresistant strain; Sensitivity Disk agar-N+5% Horse blood; 10^6 CFU/ml; read-out: minimum inhibiting concentrations (MIC)
Method: as §1

mice (ICR, male) = experiment: Acute toxicity test; assay type: in vivo; conditions: intravenous, 2000 mg/kg, three mice
Method: The compound of Example 5 according to the present invention was intraveneously administered at a dose of 2000 mg/kg to mice (ICR, male) (one group consisting of three mice).

SMILES | MIC (P. vulgaris GN 7919) [µg/mL] | MIC (B. catarrhalis W-0500) [µg/mL] | MIC (S. aureus M 126) [µg/mL] | MIC (C. freundii GN 346) [µg/mL] | MIC [1] [µg/mL] | MIC (E. faecalis W-73) [µg/mL] | MIC (S. aureus 209P JC-1) [µg/mL] | MIC (H. influenzae PRC 44) [µg/mL] | MIC (E. coli NIHJ JC-2) [µg/mL] | MIC (K. pneumoniae PC 1602) [µg/mL] | MIC (E. hirae ATCC 8043) [µg/mL] | MIC (H. influenzae PRC 2) [µg/mL] | MIC (S. pneumoniae PRC 9) [µg/mL] | acute toxicity: survival (mice (ICR, male))
C[C@@H](O)[C@H]1C(=O)N2C(C(=O)[O-])=C(c3cn4cnc(SCCN)c4s3)[C@H](C)[C@H]12.[Na+] [Example 5, Sodium (1S,5R,6S)-2-[7-(2-aminoethyl)thioimidazo[5,1-b]thiazol-2-yl]-6-((1R)-1-hydroxyethyl)-1-methyl-1-carbapen-2-em-3-carboxylate] | 0.2 | 0.05 | 1.56 | 1.56 | < 0.025 | 0.2 | < 0.025 | 0.2 | 0.1 | 0.1 | 0.39 | 0.05 | 0.05 | all the mice survived
C[C@@H](O)[C@H]1C(=O)N2C(C(=O)O)=C(SCCN=CN)C[C@H]12 [Compound A, Imipenem, reference compound] | 0.1 (≈ 0.334 µM) | 0.05 (≈ 0.167 µM) | 25 (≈ 83.5 µM) | 0.2 (≈ 0.668 µM) | < 0.025 | 0.78 (≈ 2.61 µM) | < 0.025 | 12.5 (≈ 41.8 µM) | 0.1 (≈ 0.334 µM) | 0.2 (≈ 0.668 µM) | 0.78 (≈ 2.61 µM) | 0.78 (≈ 2.61 µM) | 0.2 (≈ 0.668 µM) | 

Now from value to compound, other results behind:

MIC (P. vulgaris GN 7919) [µg/mL] | MIC (B. catarrhalis W-0500) [µg/mL] | MIC (S. aureus M 126) [µg/mL] | MIC (C. freundii GN 346) [µg/mL] | MIC [1] [µg/mL] | MIC (E. faecalis W-73) [µg/mL] | MIC (S. aureus 209P JC-1) [µg/mL] | MIC (H. influenzae PRC 44) [µg/mL] | MIC (E. coli NIHJ JC-2) [µg/mL] | MIC (K. pneumoniae PC 1602) [µg/mL] | MIC (E. hirae ATCC 8043) [µg/mL] | MIC (H. influenzae PRC 2) [µg/mL] | MIC (S. pneumoniae PRC 9) [µg/mL] | SMILES | acute toxicity: survival (mice (ICR, male))
0.1 | 0.1 | 6.25 | 1.56 | < 0.025 | 0.39 | < 0.025 | 0.2 | 0.2 | 0.1 | 0.39 | < 0.025 | 0.2 | C[C@@H](O)[C@H]1C(=O)N2C(C(=O)[O-])=C(c3cn4cncc4s3)[C@H](C)[C@H]12.[Na+] [Compound B, Sodium (1S,5R,6S)-6-((1R)-1-hydroxyethyl)-2-(imidazo[5,1-b]thiazol-2-yl)-1-methyl-1-carbapen-2-em-3-carboxylate, reference compound] | 
0.78 | 0.1 | 0.78 |  | < 0.025 | 0.2 | < 0.025 | 0.025 | 1.56 | 1.56 | 0.2 | < 0.025 | 0.05 | C[C@@H](O)[C@H]1C(=O)N2C(C(=O)[O-])=C(c3cn4cnc(SCCF)c4s3)[C@H](C)[C@H]12.[Na+] [Example 14, Sodium (1S,5R,6S)-2-[7-(2-fluoroethyl)thioimidazo[5,1-b]thiazol-2-yl]-6-((1R)-1-hydroxyethyl)-1-methyl-1-carbapen-2-em-3-carboxylate] | 
0.39 | 0.05 | 0.78 | 1.56 | < 0.025 | 0.2 | < 0.025 | 0.1 | 0.2 | 0.39 | 0.2 | 0.05 | 0.05 | C[C@@H](O)[C@H]1C(=O)N2C(C(=O)[O-])=C(c3cn4cnc(SCCNC(=N)N)c4s3)[C@H](C)[C@H]12.[Na+] [Example 20, Sodium (1S,5R,6S)-2-[7-(2-guanidinoethyl)thioimidazo[5,1-b]thiazol-2-yl]-6-((1R)-1-hydroxyethyl)-1-methyl-1-carbapen-2-em-3-carboxylate] | 
